Experimental findings from ChEMBL document CHEMBL3864148, “Synthesis of linear and angular aryl-morpholino-naphth-oxazines, their DNA-PK, PI3K, PDE3A and antiplatelet activity” (Bioorg Med Chem Lett, 2016) are described below.

One assay deals with DNA-PK/Ku70/Ku85 (Homo sapiens, UniProt P12956+P13010+P78527). Nature of the assay: Inhibition of human DNA-PK/Ku70/Ku85 using EPPLSQEAFADLWKK as substrate by HTRF assay relative to control.
Assay [1] can be described thus: Antiplatelet activity in human platelet rich plasma assessed as inhibition of collagen-induced platelet aggregation preincubated for 2 mins followed by collagen addition by two-channel platelet aggregometer. The class given is functional.
Assay [2] concerns the target T1, Phosphatidylinositol 4,5-bisphosphate 3-kinase catalytic subunit delta isoform (Homo sapiens) (UniProt O00329).
T1 sequence (whole entry): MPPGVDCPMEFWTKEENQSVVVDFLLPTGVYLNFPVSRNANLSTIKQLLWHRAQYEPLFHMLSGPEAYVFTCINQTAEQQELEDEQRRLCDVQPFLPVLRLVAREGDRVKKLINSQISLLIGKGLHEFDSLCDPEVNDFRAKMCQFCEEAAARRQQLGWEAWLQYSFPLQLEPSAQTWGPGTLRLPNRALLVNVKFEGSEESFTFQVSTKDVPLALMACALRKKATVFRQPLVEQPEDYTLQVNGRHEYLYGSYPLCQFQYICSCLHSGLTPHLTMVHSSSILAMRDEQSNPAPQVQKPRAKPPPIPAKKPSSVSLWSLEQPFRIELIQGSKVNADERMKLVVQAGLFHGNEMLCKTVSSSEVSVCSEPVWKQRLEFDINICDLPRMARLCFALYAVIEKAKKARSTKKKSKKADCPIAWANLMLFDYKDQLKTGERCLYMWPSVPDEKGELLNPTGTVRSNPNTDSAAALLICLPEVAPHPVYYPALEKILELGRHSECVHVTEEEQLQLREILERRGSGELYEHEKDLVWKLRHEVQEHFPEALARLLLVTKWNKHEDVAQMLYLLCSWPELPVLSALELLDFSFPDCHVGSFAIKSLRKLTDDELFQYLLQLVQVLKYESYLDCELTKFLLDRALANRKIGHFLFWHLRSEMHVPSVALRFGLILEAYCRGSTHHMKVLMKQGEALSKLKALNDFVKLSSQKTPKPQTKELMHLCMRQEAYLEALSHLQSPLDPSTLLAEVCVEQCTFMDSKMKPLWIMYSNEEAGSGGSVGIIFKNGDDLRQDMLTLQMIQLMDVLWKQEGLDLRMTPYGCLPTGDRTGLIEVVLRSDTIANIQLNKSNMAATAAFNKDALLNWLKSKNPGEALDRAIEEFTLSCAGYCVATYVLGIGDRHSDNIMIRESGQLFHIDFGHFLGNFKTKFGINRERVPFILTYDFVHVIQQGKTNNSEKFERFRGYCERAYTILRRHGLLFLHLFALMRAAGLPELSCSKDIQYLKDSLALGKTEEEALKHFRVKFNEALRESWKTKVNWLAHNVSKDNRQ
The experiment in a line: Inhibition of p110delta (unknown origin) assessed as decrease in ATP consumption at 10 uM after 60 mins by Kinase-Glo assay relative to control. In general terms: Kinase-Glo measures the ATP left after a reaction by luminescence.

In assay [3] the target is T2, Phosphatidylinositol 4,5-bisphosphate 3-kinase catalytic subunit beta isoform (Homo sapiens, UniProt P42338). The experiment in a line: Inhibition of p110beta (unknown origin) assessed as decrease in ATP consumption at 10 uM after 60 mins by Kinase-Glo assay relative to control.
Target sequence in this assay (P42338 whole entry, looked up, canonical isoform): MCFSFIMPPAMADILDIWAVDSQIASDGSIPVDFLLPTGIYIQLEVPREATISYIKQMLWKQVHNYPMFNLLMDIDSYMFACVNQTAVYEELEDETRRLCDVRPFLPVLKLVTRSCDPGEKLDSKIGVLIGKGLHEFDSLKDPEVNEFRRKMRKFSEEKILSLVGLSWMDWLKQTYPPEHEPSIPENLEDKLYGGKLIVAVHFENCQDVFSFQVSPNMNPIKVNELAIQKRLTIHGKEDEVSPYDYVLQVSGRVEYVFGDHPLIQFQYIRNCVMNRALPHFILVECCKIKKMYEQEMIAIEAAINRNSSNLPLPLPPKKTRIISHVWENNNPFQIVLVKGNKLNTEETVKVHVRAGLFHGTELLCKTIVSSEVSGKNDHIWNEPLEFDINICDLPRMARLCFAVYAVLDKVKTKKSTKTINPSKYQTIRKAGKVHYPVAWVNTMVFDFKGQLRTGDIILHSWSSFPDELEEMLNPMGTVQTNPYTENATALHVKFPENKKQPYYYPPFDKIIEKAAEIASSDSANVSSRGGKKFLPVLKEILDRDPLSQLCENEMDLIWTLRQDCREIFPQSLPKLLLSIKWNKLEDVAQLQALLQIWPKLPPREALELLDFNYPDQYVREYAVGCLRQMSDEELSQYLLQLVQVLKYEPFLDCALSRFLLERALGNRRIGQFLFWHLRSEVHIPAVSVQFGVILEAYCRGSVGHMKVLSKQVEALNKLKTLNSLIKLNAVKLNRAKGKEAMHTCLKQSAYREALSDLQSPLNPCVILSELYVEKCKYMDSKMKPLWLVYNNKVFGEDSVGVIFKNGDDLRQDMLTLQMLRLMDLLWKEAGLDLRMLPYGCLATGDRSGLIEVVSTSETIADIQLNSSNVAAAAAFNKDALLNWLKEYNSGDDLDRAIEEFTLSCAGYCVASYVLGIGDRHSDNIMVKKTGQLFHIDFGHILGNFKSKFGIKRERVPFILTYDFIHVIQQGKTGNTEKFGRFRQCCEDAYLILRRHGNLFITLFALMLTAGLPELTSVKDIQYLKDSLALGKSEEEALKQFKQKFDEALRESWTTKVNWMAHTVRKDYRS
For assay [4], the target named is T3, Phosphatidylinositol 4,5-bisphosphate 3-kinase catalytic subunit alpha isoform (Homo sapiens, UniProt P42336). Nature of the assay: Inhibition of p110alpha (unknown origin) assessed as decrease in ATP consumption at 10 uM after 60 mins by Kinase-Glo assay relative to control.
The target of assay [5] is cGMP-inhibited 3',5'-cyclic phosphodiesterase 3A (Homo sapiens) (UniProt Q14432). Nature of the assay: Inhibition of PDE3A (unknown origin) at 10 uM relative to control.
The target in assay [6] is T4, Phosphatidylinositol 4,5-bisphosphate 3-kinase catalytic subunit gamma isoform (Homo sapiens, UniProt P48736). Nature of the assay: Inhibition of p110gamma (unknown origin) assessed as decrease in ATP consumption at 10 uM after 60 mins by Kinase-Glo assay relative to control.
Target sequence in this assay (P48736 whole entry, looked up, canonical isoform): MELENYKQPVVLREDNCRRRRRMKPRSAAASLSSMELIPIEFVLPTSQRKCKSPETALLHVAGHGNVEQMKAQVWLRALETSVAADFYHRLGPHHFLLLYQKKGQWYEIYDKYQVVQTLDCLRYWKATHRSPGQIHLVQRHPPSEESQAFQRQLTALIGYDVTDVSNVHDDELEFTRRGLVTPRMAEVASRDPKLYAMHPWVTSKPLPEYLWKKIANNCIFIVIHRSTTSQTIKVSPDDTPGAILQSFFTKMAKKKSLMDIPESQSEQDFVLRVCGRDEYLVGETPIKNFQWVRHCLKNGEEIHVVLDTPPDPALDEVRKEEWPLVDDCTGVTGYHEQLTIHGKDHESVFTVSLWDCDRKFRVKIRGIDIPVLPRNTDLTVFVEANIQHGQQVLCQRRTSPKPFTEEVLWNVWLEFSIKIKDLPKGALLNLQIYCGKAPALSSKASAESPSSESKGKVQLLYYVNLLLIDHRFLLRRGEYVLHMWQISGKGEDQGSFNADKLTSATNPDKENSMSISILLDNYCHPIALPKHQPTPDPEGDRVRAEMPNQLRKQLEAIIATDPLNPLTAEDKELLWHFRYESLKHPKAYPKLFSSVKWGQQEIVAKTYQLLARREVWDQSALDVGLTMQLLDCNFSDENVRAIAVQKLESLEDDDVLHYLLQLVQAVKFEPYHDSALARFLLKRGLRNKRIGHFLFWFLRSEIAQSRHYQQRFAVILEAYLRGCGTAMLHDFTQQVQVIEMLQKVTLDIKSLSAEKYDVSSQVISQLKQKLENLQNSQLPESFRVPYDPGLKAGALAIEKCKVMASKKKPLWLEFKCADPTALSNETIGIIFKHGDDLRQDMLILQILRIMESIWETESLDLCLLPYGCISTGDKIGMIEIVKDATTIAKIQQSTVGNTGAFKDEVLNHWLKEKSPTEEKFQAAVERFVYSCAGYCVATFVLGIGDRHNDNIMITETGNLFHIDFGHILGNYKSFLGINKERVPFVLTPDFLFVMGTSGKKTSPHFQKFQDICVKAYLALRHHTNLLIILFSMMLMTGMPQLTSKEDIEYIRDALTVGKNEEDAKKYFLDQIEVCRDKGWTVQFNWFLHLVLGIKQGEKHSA
For assay [7], the target named is DNA-PK/Ku70/Ku85 (Homo sapiens) (UniProt P78527+P12956+P13010). The experiment in a line: Inhibition of human DNA-PK/Ku70/Ku85 at 10 uM using EPPLSQEAFADLWKK as substrate by HTRF assay relative to control. A general note: Time-resolved FRET reads energy transfer from a long-lived donor to a nearby acceptor.
For assay [8], the target named is T4, Phosphatidylinositol 4,5-bisphosphate 3-kinase catalytic subunit gamma isoform. The experiment in a line: Inhibition of p110gamma (unknown origin) assessed as decrease in ATP consumption after 60 mins by Kinase-Glo assay.
Target sequence in this assay (P48736 whole entry, canonical isoform): as the sequence (P48736 whole entry, looked up, canonical isoform) above
Assay [9] deals with T2, Phosphatidylinositol 4,5-bisphosphate 3-kinase catalytic subunit beta isoform. Nature of the assay: Inhibition of p110beta (unknown origin) assessed as decrease in ATP consumption after 60 mins by Kinase-Glo assay.
Target sequence in this assay (P42338 whole entry, canonical isoform): as the sequence (P42338 whole entry, looked up, canonical isoform) above
For assay [10], the target named is T3, Phosphatidylinositol 4,5-bisphosphate 3-kinase catalytic subunit alpha isoform. The experiment in a line: Inhibition of p110alpha (unknown origin) assessed as decrease in ATP consumption after 60 mins by Kinase-Glo assay.
Assay [11] addresses T5, Phosphatidylinositol 4,5-bisphosphate 3-kinase catalytic subunit delta isoform (Homo sapiens, UniProt O00329).
T5 sequence (O00329 whole entry): T1 sequence (whole entry)
The experiment in a line: Inhibition of p110delta (unknown origin) assessed as decrease in ATP consumption after 60 mins by Kinase-Glo assay.

T3 sequence (P42336 whole entry, canonical isoform): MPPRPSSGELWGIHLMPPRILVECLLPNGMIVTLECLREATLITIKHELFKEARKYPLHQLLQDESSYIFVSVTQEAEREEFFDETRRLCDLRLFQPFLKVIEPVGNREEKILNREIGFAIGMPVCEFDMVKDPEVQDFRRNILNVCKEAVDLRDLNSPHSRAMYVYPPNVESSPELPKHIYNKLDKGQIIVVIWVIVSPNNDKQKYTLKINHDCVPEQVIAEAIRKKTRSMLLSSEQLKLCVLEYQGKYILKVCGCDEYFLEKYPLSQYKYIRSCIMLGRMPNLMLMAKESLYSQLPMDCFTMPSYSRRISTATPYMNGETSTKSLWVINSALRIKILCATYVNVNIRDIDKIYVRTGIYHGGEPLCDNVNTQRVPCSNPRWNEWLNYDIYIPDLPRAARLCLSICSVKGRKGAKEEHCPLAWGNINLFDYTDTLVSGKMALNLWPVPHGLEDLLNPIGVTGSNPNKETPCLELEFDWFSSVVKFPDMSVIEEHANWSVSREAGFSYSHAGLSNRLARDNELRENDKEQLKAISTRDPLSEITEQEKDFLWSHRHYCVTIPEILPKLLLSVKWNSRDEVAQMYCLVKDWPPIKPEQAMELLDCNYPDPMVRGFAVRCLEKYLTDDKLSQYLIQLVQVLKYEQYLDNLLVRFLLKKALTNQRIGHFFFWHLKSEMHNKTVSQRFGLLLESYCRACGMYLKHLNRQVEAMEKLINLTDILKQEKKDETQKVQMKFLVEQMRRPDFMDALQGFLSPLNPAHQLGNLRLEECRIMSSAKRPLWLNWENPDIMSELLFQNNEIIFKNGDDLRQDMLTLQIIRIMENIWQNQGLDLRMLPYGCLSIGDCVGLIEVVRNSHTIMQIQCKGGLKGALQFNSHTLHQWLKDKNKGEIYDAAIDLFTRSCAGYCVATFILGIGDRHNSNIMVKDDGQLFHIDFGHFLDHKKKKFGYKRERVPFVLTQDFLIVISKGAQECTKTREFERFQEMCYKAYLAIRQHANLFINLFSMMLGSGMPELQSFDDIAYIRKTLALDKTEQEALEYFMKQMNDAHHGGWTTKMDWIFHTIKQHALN
Sequence of cGMP-inhibited 3',5'-cyclic phosphodiesterase 3A (Homo sapiens) (Q14432 whole entry, canonical isoform): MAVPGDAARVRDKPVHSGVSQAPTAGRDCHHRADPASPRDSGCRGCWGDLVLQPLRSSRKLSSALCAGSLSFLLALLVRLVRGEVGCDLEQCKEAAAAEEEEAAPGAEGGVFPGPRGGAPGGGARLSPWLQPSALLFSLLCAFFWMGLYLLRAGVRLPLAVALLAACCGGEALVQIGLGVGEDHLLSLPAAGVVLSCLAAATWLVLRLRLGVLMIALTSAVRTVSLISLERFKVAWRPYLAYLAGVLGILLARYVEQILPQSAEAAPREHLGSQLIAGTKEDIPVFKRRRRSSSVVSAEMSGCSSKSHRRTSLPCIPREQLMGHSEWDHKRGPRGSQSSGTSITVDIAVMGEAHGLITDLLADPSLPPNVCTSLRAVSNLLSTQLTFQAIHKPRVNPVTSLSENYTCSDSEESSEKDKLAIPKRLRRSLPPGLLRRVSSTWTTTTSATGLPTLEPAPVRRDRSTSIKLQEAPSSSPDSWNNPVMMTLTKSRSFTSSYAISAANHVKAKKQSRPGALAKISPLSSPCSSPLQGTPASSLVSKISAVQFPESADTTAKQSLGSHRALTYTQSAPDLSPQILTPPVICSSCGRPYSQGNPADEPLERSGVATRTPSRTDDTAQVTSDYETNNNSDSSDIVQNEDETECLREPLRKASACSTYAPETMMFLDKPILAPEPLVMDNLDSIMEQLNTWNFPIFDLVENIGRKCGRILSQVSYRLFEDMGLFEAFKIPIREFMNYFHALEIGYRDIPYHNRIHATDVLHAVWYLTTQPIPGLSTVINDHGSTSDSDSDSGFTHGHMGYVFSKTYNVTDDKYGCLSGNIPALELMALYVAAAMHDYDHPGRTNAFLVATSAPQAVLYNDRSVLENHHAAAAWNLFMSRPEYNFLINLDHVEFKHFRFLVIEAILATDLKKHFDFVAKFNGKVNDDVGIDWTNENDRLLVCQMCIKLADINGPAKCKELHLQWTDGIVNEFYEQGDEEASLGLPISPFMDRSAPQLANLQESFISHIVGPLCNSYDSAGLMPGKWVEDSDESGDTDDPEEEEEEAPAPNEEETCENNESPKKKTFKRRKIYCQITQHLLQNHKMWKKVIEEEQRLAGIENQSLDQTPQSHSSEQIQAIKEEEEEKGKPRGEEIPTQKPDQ

For the molecule `O=c1nc(N2CCOCC2)oc2c(-c3ccc(Cl)cc3)c3ccccc3cc12`, the results for the IC50 (against DNA-PK/Ku70/Ku85; in assay [1]) were > 100 µM and > 80 µM, respectively. Also, the inhibition amounted to 52% in [2]; 0% in [3]; 8% in assay [4]; 24% in [5]; 3% in assay [6].
With `O=c1nc(N2CCOCC2)oc2ccc3cc(-c4ccc(Cl)cc4)ccc3c12`, the inhibition in assay [7] is 8.1%; in [2], -1%; in assay [3], -1%; in assay [4], -5%; in [5], -4%; in assay [6], 0%.
Consider `O=c1nc(N2CCOCC2)oc2c(-c3ccccc3)c3ccccc3cc12`, for which the IC50 in assay [8] was > 50 µM; against DNA-PK/Ku70/Ku85 it was 78.1 µM; in assay [9], > 50 µM; in assay [1], > 80 µM; in [10], 43.8 µM; in [11], 7.7 µM. For the same molecule, the inhibition in assay [5] was found to be 32%.
For `O=c1nc(N2CCOCC2)oc2c1cc(-c1ccc(Cl)cc1)c1ccccc12`, the inhibition in [7] was 11%; in assay [5], 1%.
Take `O=c1nc(N2CCOCC2)oc2c1cc(-c1cccs1)c1ccccc12`: the figures for the inhibition in assay [7] and in [5] were 34% and 32%, respectively.
For `O=c1nc(N2CCOCC2)oc2ccc3cc(-c4cccc5c4oc4ccccc45)ccc3c12`, in that order: 0% and 12%.
On to `Nc1cccc(-c2cc3c(=O)nc(N4CCOCC4)oc3c3ccccc23)c1`, for which the inhibition in [5] was -3%.
For the molecule `O=c1nc(N2CCOCC2)oc2cc3ccccc3cc12`, the inhibition in assay [2] is -10%.
For `O=c1nc(N2CCOCC2)oc2c1cc(-c1ccccc1)c1ccccc12`, the inhibition was 22% in assay [7]; 3% in assay [2]; 10% in assay [3]; 35% in assay [4]; 15% in assay [5]; 34% in assay [6]. In assay [1], the half-inhibitory concentration (IC50) came out at 3 µM.
Consider `O=c1nc(N2CCOCC2)oc2c1ccc1ccccc12`, for which the values for the IC50 (against DNA-PK/Ku70/Ku85; in [1]) were 10 µM and > 80 µM, respectively. In addition, the inhibition in assay [2] was found to be 12%; in assay [3] it was 15%; in assay [4] it was 22%; in assay [6], 4%.
With `O=c1nc(N2CCOCC2)oc2c1cc(-c1cccc3c1sc1ccccc13)c1ccccc12`, the inhibition in assay [7] is 0%; in [2], 0%; in assay [3] it was 11%; in assay [4], 23%; in assay [5] it was 30%; in assay [6] it was 12%. Besides, in assay [1], the IC50 is 5 µM.
For the molecule `COc1ccc(-c2cc3c(=O)nc(N4CCOCC4)oc3c3ccccc23)cc1`, the inhibition was found to be 19% in [7]; 9% in [2]; 42% in assay [3]; 20% in assay [4]; 26% in [5]; 17% in assay [6]. Besides, the concentration for half-maximal inhibition (IC50) in assay [1] was 14 µM.
As for `O=c1nc(N2CCOCC2)oc2c1cc(-c1cccc3c1oc1ccccc13)c1ccccc12`, the inhibition in assay [7] worked out at 24%; in [2], 0%; in [3], 22%; in assay [4], 9%; in [5] it was 11%; in assay [6], 24%. Moreover, the IC50 in [1] amounted to 2 µM.
Turning to `O=c1nc(N2CCOCC2)oc2ccc3cc(-c4cccc5c4sc4ccccc45)ccc3c12`, the results for the inhibition in assay [7] and in assay [5] were 0% and 5%, respectively.
Turning to `COc1ccc(-c2ccc3c(ccc4oc(N5CCOCC5)nc(=O)c43)c2)cc1`, the inhibition is 0% in assay [2]; 0% in assay [3]; 0% in [4]; 18% in [5]; -2% in assay [6].
As to `O=c1nc(N2CCOCC2)oc2ccc3ccccc3c12`, the values for the IC50 (against DNA-PK/Ku70/Ku85; in assay [1]) were 38.8 µM and > 80 µM, respectively. In addition, the inhibition amounted to 8% in assay [2], 23% in assay [3], 4% in [4] and 2% in assay [6].
Consider `O=c1nc(N2CCOCC2)oc2c1cc(-c1ccc(CO)cc1)c1ccccc12`, for which, in assay [5], the inhibition came out at 35%.
On to `O=c1nc(N2CCOCC2)oc2c1cc(-c1ccsc1)c1ccccc12`, for which the inhibition in assay [7] and in [5] was 22% in each case.
As for `O=c1nc(N2CCOCC2)oc2c1cc(-c1cccc3ccccc13)c1ccccc12`, the inhibition in [7] is 10%; in [5] it was 26%.
For `O=c1nc(N2CCOCC2)oc2c1cc(/C=C/c1ccccc1)c1ccccc12`, in that order: 5.9% and 18%.
With `COc1ccc(-c2c3ccccc3cc3c(=O)nc(N4CCOCC4)oc23)cc1`, the IC50 in assay [8] was > 50 µM; against DNA-PK/Ku70/Ku85, 11.9 µM; in [9] it was > 50 µM; in assay [1] it was > 80 µM; in assay [10], > 50 µM; in [11], 5.6 µM. Moreover, in assay [5], the inhibition came to 6%.
`NC(=O)c1ccc(-c2cc3c(=O)nc(N4CCOCC4)oc3c3ccccc23)cc1`: the inhibition in assay [7] is 10%; in assay [5], 7%.
`O=c1nc(N2CCOCC2)oc2ccc3cc(-c4ccccc4)ccc3c12`: the inhibition in assay [7] is 0%; in assay [2] it was -1%; in [3] it was -3%; in assay [4] it was -2%; in assay [5], 13%; in assay [6] it was 1%.

The IC50 is the concentration that inhibits the measured activity by half. One may read the inhibition as the relative decrease from the control value, in per cent.
